One assay concerns T47D cells. In words: Cell-based assay: anti-proliferative activity, Cell Counting Kit-8, 72 hours (T47D). Conditions: Homo sapiens, T47D, 72 h. A digest of the protocol:
(§1)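 Anti-MELK western blot on crude lysates → MELK status per line. Cells plated 96-well, compound exposure, CCK-8 readout at 72 h; IC50 calculated.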
In general terms: Formazan colour is commonly taken as a measure of viable cells.

The next assay relates to A549 cells. The assay can be described thus: Cell-based assay: anti-proliferative activity, Cell Counting Kit-8, 72 hours (A549). Conditions: Homo sapiens, A549, 72 h, 72 hours. A digest of the protocol:
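A549 cells were seeded in 96-well plates and exposed to candidate inhibitors for 72 hours. Cell growth was then measured with Cell Counting Kit-8, and IC50 values were calculated from the resulting growth data.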

The subject of the next assay is HT-1197 cells. In words: Cell-based assay: anti-proliferative activity, Cell Counting Kit-8, 72 hours (HT-1197, negative control without MELK expression). The settings on record: Homo sapiens, HT1197, 72 h, HT1197 cells (negative control, no MELK expression), 72 hours. The essentials:
as §1

The next assay has as its target MELK (Homo sapiens, UniProt Q14680). The assay can be described thus: Kinase assay: MELK activity, phosphorylation of FITC-labeled histone H3 peptide measured by IMAP fluorescence polarization. Type of assay: biochemical. The settings on record: read-out: IC50 (μM) (kinase assay). A digest of the protocol:
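Compounds, serially diluted from 12.5 mM DMSO stocks to 1% final DMSO, were tested with FITC-labeled histone H3 peptide as substrate. The reaction was stopped with progressive binding solution. Fluorescence polarization was read after 0.5 hour at room temperature.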
(In fluorescence polarisation assays a small probe gives low polarisation when free and higher when bound to something large.)

A further assay concerns DU4475 cells. The assay can be described thus: Cell-based assay: anti-proliferative activity, Cell Counting Kit-8, 72 hours (DU4475). The settings on record: Homo sapiens, DU-4475, 72 h.

Each structure is given as a SMILES string. Where a name gives a salt, the structure may show the parent alone.

Chain of MELK (Q14680 whole entry, looked up): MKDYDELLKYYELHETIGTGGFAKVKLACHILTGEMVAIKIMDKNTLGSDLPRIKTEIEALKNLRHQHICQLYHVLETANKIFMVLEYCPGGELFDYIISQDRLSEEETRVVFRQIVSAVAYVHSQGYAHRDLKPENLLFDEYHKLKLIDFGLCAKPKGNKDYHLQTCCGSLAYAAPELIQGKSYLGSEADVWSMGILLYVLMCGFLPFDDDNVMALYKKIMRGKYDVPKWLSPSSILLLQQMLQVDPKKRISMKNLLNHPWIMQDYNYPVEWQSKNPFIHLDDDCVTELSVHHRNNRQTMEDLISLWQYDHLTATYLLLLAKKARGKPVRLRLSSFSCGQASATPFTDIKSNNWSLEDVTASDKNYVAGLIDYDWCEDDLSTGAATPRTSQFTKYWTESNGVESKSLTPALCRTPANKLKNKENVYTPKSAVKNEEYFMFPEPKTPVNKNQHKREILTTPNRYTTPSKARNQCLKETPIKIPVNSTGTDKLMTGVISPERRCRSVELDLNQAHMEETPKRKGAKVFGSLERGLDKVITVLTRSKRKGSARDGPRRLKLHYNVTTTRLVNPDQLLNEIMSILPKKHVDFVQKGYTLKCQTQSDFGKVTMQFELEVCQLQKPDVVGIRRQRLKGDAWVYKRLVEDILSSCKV

For `COc1cc(-c2ccc3ncc(C(=O)C4CC4)c(Nc4ccc(NCCO)nc4)c3c2)cc(Cl)c1O` [Example 677, (6-(3-chloro-4-hydroxy-5-methoxyphenyl)-4-(6-(2-hydroxyethylamino)pyridin-3-ylamino)quinolin-3-yl)(cyclopropyl)methanone], the 50% inhibitory concentration (IC50) was 0.33 µM in the assay with T47D cells; 0.36 µM in the assay with A549 cells; 1.5 µM in the assay with HT-1197 cells; 0.014 µM on MELK; 0.38 µM in the assay on DU4475 cells.
The like results for `O=C(c1cnc2ccc(-c3cc(F)c(O)c(Cl)c3)cc2c1N[C@H]1CC[C@H](CN2CCC(O)C2)CC1)C1CC1` (stereo partly drawn) [Example 631, (6-(3-chloro-5-fluoro-4-hydroxyphenyl)-4-((trans-4-((3-hydroxypyrrolidin-1-yl)methyl)cyclohexyl)amino)quinolin-3-yl)(cyclopropyl)methanone] were, in that order, 0.074 µM, 0.17 µM, 0.85 µM, 0.0021 µM and 0.055 µM.
On to `CC1(N)CCC(Nc2c(C(=O)C3CC3)cnc3ccc(-c4cc(Cl)c(O)c(Cl)c4)cc23)CC1` (centres unmarked) [Example 638, [4-(4-Amino-4-methylcyclohexylamino)-6-(3,5-dichloro-4-hydroxyphenyl)quinolin-3-yl](cyclopropyl)methanone], for which the IC50 with T47D cells amounted to 0.1 µM; in the assay on A549 cells it was 0.12 µM; in the assay on HT-1197 cells, 0.67 µM; on MELK, 0.0034 µM; with DU4475 cells, 0.022 µM.
The like results for `CN(C)C1CCN(c2ccc(Nc3c(C(=O)C4CC4)cnc4ccc(-c5cc(F)c(O)c(Cl)c5)cc34)cn2)C1` (centres unmarked) [Example 691, (6-(3-chloro-5-fluoro-4-hydroxyphenyl)-4-(6-(3-(dimethylamino)pyrrolidin-1-yl)pyridin-3-ylamino)quinolin-3-yl)(cyclopropyl)methanone] were, in that order, 0.18 µM, 0.32 µM, 5.9 µM, 0.012 µM and 0.22 µM.
The like results for `COc1cc(-c2ccc3ncc(C(=O)C4CC4)c(NC4CCC(C)(N)CC4)c3c2)cc(Cl)c1O` (centres unmarked) [Example 639, [4-(4-Amino-4-methylcyclohexylamino)-6-(3-chloro-4-hydroxy-5-methoxyphenyl)quinolin-3-yl](cyclopropyl)methanone] were, in that order, 0.1 µM, 0.09 µM, 0.46 µM, 0.0012 µM and 0.062 µM.
As for `COc1cc(-c2ccc3ncc(C(=O)C4CC4)c(Nc4cnc(N5CCCC(N)C5)nc4)c3c2)cc(Cl)c1O` (centres unmarked) [Example 644, (4-(2-(3-aminopiperidin-1-yl)pyrimidin-5-ylamino)-6-(3-chloro-4-hydroxy-5-methoxyphenyl)quinolin-3-yl)(cyclopropyl)methanone], the half-inhibitory concentration (IC50) in the assay on T47D cells is 0.047 µM; with A549 cells it was 0.23 µM; in the assay on HT-1197 cells, 2.4 µM; at MELK it was 0.0028 µM; with DU4475 cells, 0.068 µM.
For the molecule `N[C@H]1CCCN(c2ccc(Nc3c(C(=O)C4CC4)cnc4ccc(-c5cc(F)c(O)c(Cl)c5)cc34)cn2)C1` [Example 648, (S)-(4-(6-(3-aminopiperidin-1-yl)pyridin-3-ylamino)-6-(3-chloro-5-fluoro-4-hydroxyphenyl)quinolin-3-yl)(cyclopropyl)methanone], the concentration for half-maximal inhibition (IC50) with T47D cells came to 0.0095 µM; in the assay on A549 cells it was 0.013 µM; in the assay with HT-1197 cells, 0.28 µM; on MELK, 0.0019 µM; in the assay with DU4475 cells, 0.0046 µM.
The like results for `COc1cc(-c2ccc3ncc(C(=O)C4CC4)c(Nc4ccc(OCCN(C)C)nc4)c3c2)cc(Cl)c1O` [Example 712, (6-(3-chloro-4-hydroxy-5-methoxyphenyl)-4-(6-(2-(dimethylamino)ethoxy)pyridin-3-ylamino)quinolin-3-yl)(cyclopropyl)methanone] were, in that order, 0.31 µM, 0.31 µM, 5.4 µM, 0.0036 µM and 0.34 µM.
On the same counts, the results for `COc1cc(-c2ccc3ncc(C(C)=O)c(N[C@H]4CC[C@H](CCN(C)C)CC4)c3c2)cc(Cl)c1O` [Example 738] are 0.51 µM, 0.34 µM, 7.8 µM, 0.0026 µM and 2.1 µM.
The like results for `COc1cc(-c2ccc3ncc(C(=O)C4CC4)c(N[C@H]4CC[C@H](CN(C)CCO)CC4)c3c2)cc(Cl)c1O` [Example 633] were, in that order, 0.21 µM, 0.12 µM, 2.3 µM, 0.0016 µM and 0.15 µM.
For `COC1CCN(C2CCC(Nc3c(C(=O)C4CC4)cnc4ccc(-c5cc(Cl)c(O)c(Cl)c5)cc34)CC2)C1` (centres unmarked) [Example 661, cyclopropyl(6-(3,5-dichloro-4-hydroxyphenyl)-4-(4-(3-methoxypyrrolidin-1-yl)cyclohexylamino)quinolin-3-yl)methanone], the IC50 in the assay with T47D cells is 0.25 µM; in the assay on A549 cells it was 0.17 µM; in the assay on HT-1197 cells, 1.4 µM; on MELK, 0.0018 µM; in the assay with DU4475 cells, 0.1 µM.
On the same counts, the results for `CN(C)CCc1cccc(Nc2c(C(=O)C3CC3)cnc3ccc(-c4cc(Cl)c(O)c(Cl)c4)cc23)c1` [Example 698, Cyclopropyl{6-(3,5-dichloro-4-hydroxyphenyl)-4-[3-(2-(dimethylamino)ethyl)phenylamino]quinolin-3-yl}methanone] are 0.3 µM, 0.05 µM, 10 µM, 0.0024 µM and 0.04 µM.
On the same counts, the results for `CN1CCCC(n2cc(Nc3c(C(=O)C4CC4)cnc4ccc(-c5cc(F)c(O)c(Cl)c5)cc34)cn2)C1` (centres unmarked) [Example 699, {6-(3-Chloro-5-fluoro-4-hydroxyphenyl)-4-[1-(1-methylpiperidin-3-yl)-1H-pyrazol-4-ylamino]quinolin-3-yl}(cyclopropyl)methanone] are 0.24 µM, 0.18 µM, 2.7 µM, 0.0026 µM and 0.072 µM.
Consider `CCC(=O)c1cnc2ccc(-c3cc(F)c(O)c(Cl)c3)cc2c1N[C@H]1CC[C@H](CN(C)C)CC1` [Example 714, 1-(6-(3-chloro-5-fluoro-4-hydroxyphenyl)-4-((trans-4-((dimethylamino)methyl)cyclohexyl)amino)quinolin-3-yl)propan-1-one], for which the half-maximal inhibitory concentration (IC50) in the assay on T47D cells worked out at 0.054 µM; in the assay with A549 cells, 0.11 µM; with HT-1197 cells, 0.55 µM; on MELK, 0.004 µM; in the assay on DU4475 cells it was 0.067 µM.
On the same counts, the results for `CC(=O)c1cnc2ccc(-c3cc(F)c(O)c(Cl)c3)cc2c1N[C@H]1CC[C@H](CCN(C)C)CC1` [Example 741, 1-(6-(3-chloro-5-fluoro-4-hydroxyphenyl)-4-((trans-4-(2-(dimethylamino)ethyl)cyclohexyl)amino)quinolin-3-yl)ethanone] are 0.037 µM, 0.085 µM, 2 µM, 0.0048 µM and 0.062 µM.
The like results for `CN1CCN(Cc2ccc(Nc3c(C(=O)C4CC4)cnc4ccc(-c5cc(F)c(O)c(Cl)c5)cc34)cn2)CC1` [Example 684, (6-(3-chloro-5-fluoro-4-hydroxyphenyl)-4-(6-((4-methylpiperazin-1-yl)methyl)pyridin-3-ylamino)quinolin-3-yl)(cyclopropyl)methanone] were, in that order, 0.88 µM, 1.5 µM, 15 µM, 0.05 µM and 0.82 µM.
The like results for `COc1cc(-c2ccc3ncc(C(C)=O)c(Nc4ccc(N5CCNCC5)nc4)c3c2)cc(Cl)c1O` [Example 704, 1-(6-(3-chloro-4-hydroxy-5-methoxyphenyl)-4-(6-(piperazin-1-yl)pyridin-3-ylamino)quinolin-3-yl)ethanone hydrochloride] were, in that order, 0.17 µM, 0.2 µM, 2.1 µM, 0.0023 µM and 0.12 µM.
As to `COc1cc(-c2ccc3ncc(C(=O)C(C)C)c(Nc4ccc(N5CCNCC5)nc4)c3c2)cc(Cl)c1O` [Example 680, 1-(6-(3-chloro-4-hydroxy-5-methoxyphenyl)-4-(6-(piperazin-1-yl)pyridin-3-ylamino)quinolin-3-yl)-2-methylpropan-1-one], the IC50 amounted to 0.59 µM in the assay with T47D cells; 1.3 µM with A549 cells; 2.4 µM in the assay with HT-1197 cells; 0.011 µM on MELK; 1 µM in the assay with DU4475 cells.
On the same counts, the results for `COc1cc(-c2ccc3ncc(C(=O)C4CC4)c(Nc4ccc(C(O)CN(C)C)cc4)c3c2)cc(Cl)c1O` (centres unmarked) [Example 708, (6-(3-chloro-4-hydroxy-5-methoxyphenyl)-4-(4-(2-(dimethylamino)-1-hydroxyethyl)phenylamino)quinolin-3-yl)(cyclopropyl)methanone] are 0.41 µM, 0.3 µM, 4.6 µM, 0.0065 µM and 0.25 µM.

Broadly, the IC50 is the concentration at which inhibition is half-maximal.

For the origin of these results see patent publication US9120749B2, “Quinoline derivatives and MELK inhibitors containing the same” (ONCOTHERAPY SCIENCE, INC., priority 2010, dated 2015).
